The record followed here is patent US20240034736A1, “HSD17B13 INHIBITORS AND USES THEREOF” (FL2022-001, Inc., priority 2020, published 2024).

For this assay, the target named is Recombinant human HSD17B13 enzyme (Homo sapiens (Human), UniProt Q7Z5P4). As to the kind of experiment: HSD17b13 NAD(P)H-Glo Biochemical Assay. Particulars: 50 uM estradiol, 1 mM NAD+; read-out: HSD17β13 IC50. In short, it runs like this: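 Recombinant human HSD17B13 was pre-incubated with inhibitor for 20 min at RT in 20 mM Tris pH 7.4 with 0.002% Tween-20 and 0.02% BSA. Reaction then ran with 50 uM estradiol and 1 mM NAD+ (final) for 3 h at 37° C. NADH formed was detected by NAD(P)H-Glo luminescence after 1 h at RT.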
Chain of Recombinant human HSD17B13 enzyme (Q7Z5P4 20-300): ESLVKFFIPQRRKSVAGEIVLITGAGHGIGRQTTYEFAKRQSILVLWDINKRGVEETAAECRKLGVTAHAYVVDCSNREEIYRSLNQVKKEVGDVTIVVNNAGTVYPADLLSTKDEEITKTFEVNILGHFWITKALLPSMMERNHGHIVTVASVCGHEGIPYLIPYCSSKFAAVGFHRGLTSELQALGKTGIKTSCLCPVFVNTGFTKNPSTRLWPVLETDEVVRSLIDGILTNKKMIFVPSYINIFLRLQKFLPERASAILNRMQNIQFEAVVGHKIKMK
Broadly, the IC50 is the midpoint of a concentration-inhibition curve. Take `OCc1ccc(-c2ccc3c(cnn3-c3ccc(F)c(O)c3)c2)c(Cl)c1` [Compound 5.12, 5-(5-(2-Chloro-4-(hydroxymethyl)phenyl)-1H-indazol-1-yl)-2-fluorophenol]: the half-maximal inhibitory concentration (IC50) was 0.1 to 1 µM.

With `CN(c1ccc2c(c1)c(C1CC1)nn2-c1cc(C(F)(F)F)c(F)c(O)c1F)C1CCOCC1` [Compound 19.75, 3-(3-Cyclopropyl-5-(methyl(tetrahydro-2H-pyran-4-yl)amino)-1H-indazol-1-yl)-2,6-difluoro-5-(trifluoromethyl)phenol], the IC50 lay within 0.1 to 1 µM.

In the case of `Cc1nn(-c2cc(C(F)(F)F)c(Cl)c(O)c2F)c2cnc(N3CCOCC34CC4)cc12` [Compound 19.116, 2-Chloro-6-fluoro-5-(3-methyl-5-(7-oxa-4-azaspiro[2.5]octan-4-yl)-1H-pyrazolo[3,4-c]pyridin-1-yl)-3-(trifluoromethyl)phenol], the 50% inhibitory concentration (IC50) was under 0.1 µM.

Regarding `Cc1nn(-c2cc(C(F)(F)F)c(F)c(O)c2F)c2cnc(N3CCOC4(CC4)C3)nc12` [Compound 19.81, 2,6-Difluoro-3-(3-methyl-5-(4-oxa-7-azaspiro[2.5]octan-7-yl)-1H-pyrazolo[4,3-d]pyrimidin-1-yl)-5-(trifluoromethyl)phenol], the IC50 was under 0.1 µM.

For `Oc1ccc(-c2ccc3c(cnn3-c3cc(O)c(F)c(C(F)(F)F)c3)c2)cc1Cl` [Compound 1.04, 5-(5-(3-Chloro-4-hydroxyphenyl)-1H-indazol-1-yl)-2-fluoro-3-(trifluoromethyl)phenol], the IC50 is under 0.1 µM.

`CC(C)S(=O)(=O)N1CCN(c2cc3cnn(-c4cc(O)c(F)c(F)c4)c3cc2Cl)CC1` [Compound 21.28, 5-(6-Chloro-5-(4-(isopropyl-sulfonyl)piperazin-1-yl)-1H-indazol-1-yl)-2,3-difluoro-phenol]: the IC50 was 0.1 to 1 µM.

Take `CNS(=O)(=O)C1CN(c2ccc3c(cnn3-c3cc(O)c(F)c(F)c3)c2)C1` [Compound 21.35, 1-(1-(3,4-Difluoro-5-hydroxy-phenyl)-1H-indazol-5-yl)-N-methylazetidine-3-sulfonamide]: the IC50 fell in the range of 1 to 30 µM.

For the molecule `Cc1nn(-c2cc(C(F)(F)F)c(F)c(O)c2F)c2cnc(N(C)C3CCOCC3)c(F)c12` [Compound 19.102, 2,6-Difluoro-3-(4-fluoro-3-methyl-5-(methyl(tetrahydro-2H-pyran-4-yl)amino)-1H-pyrazolo[3,4-c]pyridin-1-yl)-5-(trifluoromethyl)phenol], the concentration for half-maximal inhibition (IC50) is 0.1 to 1 µM.

Take `CS(=O)(=O)N1CCN(c2ccc3c(cnn3-c3cc(C(F)(F)F)cc(O)n3)c2)CC1` [Compound 31, 6-(5-(4-(Methylsulfonyl)piperazin-1-yl)-1H-indazol-1-yl)-4-(trifluoromethyl)pyridin-2-ol]: the 50% inhibitory concentration (IC50) was 0.1 to 1 µM.

For the molecule `Cc1nn(-c2cc(O)c(F)c(F)c2)c2ccc(N3CCN(S(C)(=O)=O)CC3)cc12` [Compound 21.01, 2,3-Difluoro-5-(3-methyl-5-(4-(methylsulfonyl)piperazin-1-yl)-1H-indazol-1-yl)phenol], the half-inhibitory concentration (IC50) was 0.1 to 1 µM.

For the molecule `CS(=O)(=O)N1CCN(c2cc3cn(-c4cc(O)c(F)c(C(F)(F)F)c4)nc3cc2Cl)CC1` [Compound 19.46, 5-(6-Chloro-5-(4-(methylsulfonyl)piperazin-1-yl)-2H-indazol-2-yl)-2-fluoro-3-(trifluoromethyl)phenol], the IC50 is under 0.1 µM.

`CS(=O)(=O)N1CCN(c2cc3cnn(-c4cccc(O)c4F)c3cn2)CC1` [Compound 19.11, 2-Fluoro-3-(5-(4-(methylsulfonyl)piperazin-1-yl)-1H-pyrazolo[3,4-c]pyridine-1-yl)phenol]: the IC50 is 1 to 30 µM.

As for `CC(=O)c1cc(-n2nc(C)c3cc(N4CCOCC45CC5)ncc32)cc(O)c1F` [Compound 19.86, 1-(2-Fluoro-3-hydroxy-5-(3-methyl-5-(7-oxa-4-azaspiro[2.5]octan-4-yl)-1H-pyrazolo[3,4-c]pyridin-1-yl)phenyl)ethanone], the IC50 fell in the range of 0.1 to 1 µM.

In the case of `CS(=O)(=O)N1CCN(c2ccc3nn(-c4cc(C(F)(F)F)cc(O)n4)cc3c2)CC1` [Compound 31.01, 6-(5-(4-(Methylsulfonyl)-piperazin-1-yl)-2H-indazol-2-yl)-4-(trifluoromethyl)-pyridin-2-ol], the IC50 fell in the range of 1 to 30 µM.

For `Cc1nn(-c2cc(C(F)(F)F)c(F)c(O)c2F)c2cnc(N3CCN(S(=O)(=O)c4ccccc4)CC34CC4)cc12` [Compound 19.83, 2,6-Difluoro-3-(3-methyl-5-(7-(phenylsulfonyl)-4,7-diazaspiro[2.5]octan-4-yl)-1H-pyrazolo[3,4-c]pyridin-1-yl)-5-(trifluoromethyl)phenol], the 50% inhibitory concentration (IC50) was under 0.1 µM.

Turning to `CS(=O)(=O)N1CCC(Oc2ccc3c(cnn3-c3cc(O)c(F)c(F)c3)c2)CC1` [Compound 25.01, 2,3-Difluoro-5-(5-((1-(methyl-sulfonyl)piperidin-4-yl)oxy)-1H-indazol-1-yl)phenol], the IC50 fell in the range of 1 to 30 µM.

`CN(c1ccc2c(c1)c(C(F)(F)F)nn2-c1cc(C(F)(F)F)c(F)c(O)c1F)C1CCOCC1` [Compound 19.71, 2,6-Difluoro-3-(5-(methyl(tetrahydro-2H-pyran-4-yl)amino)-3-(trifluoromethyl)-1H-indazol-1-yl)-5-(trifluoromethyl)phenol]: the IC50 was in the range of 0.1 to 1 µM.

Regarding `Cc1nn(-c2ccc(Cl)c(O)c2F)c2cc(F)c(N3CCN(S(C)(=O)=O)CC34CC4)cc12` [Compound 19.104, 6-Chloro-2-fluoro-3-(6-fluoro-3-methyl-5-(7-(methylsulfonyl)-4,7-diazaspiro[2.5]octan-4-yl)-1H-indazol-1-yl)phenol], the IC50 is under 0.1 µM.

As for `Cc1nn(-c2cc(C(F)(F)F)c(F)c(O)c2F)c2cc(Cl)c(N(C)C3CCOCC3)nc12` [Compound 19.115, 3-(6-Chloro-3-methyl-5-(methyl(tetrahydro-2H-pyran-4-yl)amino)-1H-pyrazolo[4,3-b]pyridin-1-yl)-2,6-difluoro-5-(trifluoromethyl)phenol], the IC50 was under 0.1 µM.

Consider `Cc1nn(-c2cc(C(F)(F)F)c(F)c(O)c2F)c2cnc(N3CCC(OCC4CC4)CC3)cc12` [Compound 19.59, 3-(5-(4-(Cyclopropylmethoxy)piperidin-1-yl)-3-methyl-1H-pyrazolo[3,4-c]pyridine-1-yl)-2,6-difluoro-5-(trifluoromethyl)phenol], for which the IC50 fell in the range of 0.1 to 1 µM.

Turning to `CS(=O)(=O)c1ccc(-c2ccc3c(cnn3-c3ccc(F)c(O)c3)c2)cc1` [Compound 5.05, 2-Fluoro-5-(5-(4-(methylsulfonyl)phenyl)-1H-indazol-1-yl)phenol], the concentration for half-maximal inhibition (IC50) was in the range of 0.1 to 1 µM.

Regarding `CC1(C)CC=C(c2ccc3c(cnn3-c3cc(O)c(F)c(C(F)(F)F)c3)c2)CC1` [Compound 18.01, 5-(5-(4,4-Dimethylcyclohex-1-en-1-yl)-1H-indazol-1-yl)-2-fluoro-3-(trifluoromethyl)phenol], the IC50 was in the range of 0.1 to 1 µM.

For the molecule `Cc1nn(-c2cc(O)c(F)c(C(=O)N(C)C)c2)c2cnc(N3CCOCC34CC4)cc12` [Compound 19.99, 2-Fluoro-3-hydroxy-N,N-dimethyl-5-(3-methyl-5-(7-oxa-4-azaspiro[2.5]octan-4-yl)-1H-pyrazolo[3,4-c]pyridin-1-yl)benzamide], the IC50 was in the range of 0.1 to 1 µM.

With `Cc1nn(-c2cc(C(F)(F)F)c(F)c(O)c2F)c2cnc(N3CCN(S(C)(=O)=O)CC34CC4)nc12` [Compound 19.107, 2,6-Difluoro-3-(3-methyl-5-(7-(methylsulfonyl)-4,7-diazaspiro[2.5]octan-4-yl)-1H-pyrazolo[4,3-d]pyrimidin-1-yl)-5-(trifluoromethyl)phenol], the half-maximal inhibitory concentration (IC50) is under 0.1 µM.

On to `O=S(=O)(Cc1ccccc1)N1CCN(c2ccc3c(cnn3-c3cc(O)c(F)c(F)c3)c2)CC1` [Compound 21.10, 5-(5-(4-(Benzylsulfonyl)-piperazin-1-yl)-1H-indazol-1-yl)-2,3-difluorophenol], for which the concentration for half-maximal inhibition (IC50) lay in the range of 0.1 to 1 µM.

Consider `Cc1nn(-c2cc(C(F)(F)F)c(F)c(O)c2F)c2cnc(N3CCO[C@H](c4ccccc4)C3)cc12` [Compound 19.108, (R)-2,6-Difluoro-3-(3-methyl-5-(2-phenylmorpholino)-1H-pyrazolo[3,4-c]pyridin-1-yl)-5-(trifluoromethyl)phenol], for which the IC50 was under 0.1 µM.

`Cc1nn(-c2cc(C(F)(F)F)c(F)c(O)c2F)c2ccc(N3CCOCC34CC4)cc12` [Compound 19.94, 2,6-Difluoro-3-(3-methyl-5-(7-oxa-4-azaspiro[2.5]octan-4-yl)-1H-indazol-1-yl)-5-(trifluoromethyl)phenol]: the 50% inhibitory concentration (IC50) is under 0.1 µM.

In the case of `CNC(=O)c1ccc(-c2ccc3c(cnn3-c3ccc(F)c(O)c3)c2)c(Cl)c1` [Compound 5.26, 3-Chloro-4-(1-(4-fluoro-3-hydroxyphenyl)-1H-indazol-5-yl)-N-methylbenzamide], the concentration for half-maximal inhibition (IC50) fell in the range of 0.1 to 1 µM.

Regarding `Oc1cc(-n2ncc3nc(-c4ccc(O)c(Cl)c4)ccc32)ccc1F` [Compound 8.03, 2-Chloro-4-(1-(4-fluoro-3-hydroxyphenyl)-1H-pyrazolo[4,3-b]pyridine-5-yl)phenol], the 50% inhibitory concentration (IC50) is 1 to 30 µM.

`Oc1ccc(-c2ccc3c(cnn3-c3cc(O)c(F)c(F)c3)c2)nc1` [Compound 16, 6-(1-(3,4-Difluoro-5-hydroxyphenyl)-1H-indazol-5-yl)pyridine-3-ol]: the IC50 was 1 to 30 µM.

Consider `N#Cc1nn(-c2ccc(F)c(O)c2)c2ccc(-c3ccc(O)c(Cl)c3)cc12` [Compound 4.15, 5-(3-Chloro-4-hydroxyphenyl)-1-(4-fluoro-3-hydroxyphenyl)-1H-indazole-3-carbonitrile], for which the 50% inhibitory concentration (IC50) lay in the range of 0.1 to 1 µM.

With `CS(=O)(=O)N1CCN(c2ccc3c(cnn3-c3cc(O)c(F)c(C(F)(F)F)c3)c2)C2(CCC2)C1` [Compound 21.46, 2-Fluoro-5-(5-(8-(methyl-sulfonyl)-5,8-diazaspiro[3.5]-nonan-5-yl)-1H-indazol-1-yl)-3-(trifluoromethyl)phenol], the IC50 is 0.1 to 1 µM.

Consider `CN(c1ccc2c(c1)c(Cl)nn2-c1cc(C(F)(F)F)c(F)c(O)c1F)C1CCOCC1` [Compound 19.87, 3-(3-Chloro-5-(methyl(tetrahydro-2H-pyran-4-yl)amino)-1H-indazol-1-yl)-2,6-difluoro-5-(trifluoromethyl)phenol], for which the IC50 is 0.1 to 1 µM.
